These results are taken from US8735414B2 (priority 2009, dated 2014).

Some results are limits rather than exact numbers.

Series [1] has as its system bicistronic HCV replicon (replicon RNA, GenBank Accession No. AJ242654). The experiment in a line: HCV Replicon Assay. The format is cell-based. The note with it: Hepatitis C virus, 72 h, read-out: Replicon IC50. For orientation: In antiviral work, replicon cells carry a viral genome segment that copies itself.

Consider `C[C@H](NS(=O)(=O)c1ccc(-c2c(C#N)c3cc(Cl)ccc3n2C2CCCC2)nc1)C(F)(F)F` [compound 365, 6-(5-chloro-3-cyano-1-cyclopentyl-1H-indol-2-yl)-N-[(2S)-1,1,1-trifluoropropan-2-yl]pyridine-3-sulfonamide], for which the melting point (usually the temperature of the solid-liquid transition) lay within 207 to 214 °C. For the same molecule, the IC50 (commonly the concentration that gives 50% inhibition) in series [1] was under 500 nM.
For `C[C@H](NS(=O)(=O)c1cnc(-c2c(C#N)c3cc(C#N)ccc3n2C2CCCC2)nc1)C1CC1` [compound 367, N-[(1S)-1-cyclopropylethyl]-2-(3,5-dicyano-1-cyclopentyl-1H-indol-2-yl)pyrimidine-5-sulfonamide] the same measures were 218 to 223 °C and 500 to 2000 nM.
For `C[C@H](NS(=O)(=O)c1ccc(-c2c(C#N)c3ccc(OC(F)(F)F)cc3n2C2CCC2)nc1)C(F)(F)F` [compound 370, 6-[3-cyano-1-cyclobutyl-6-(trifluoromethoxy)-1H-indol-2-yl]-N-[(2S)-1,1,1-trifluoropropan-2-yl]pyridine-3-sulfonamide] the same measures were 165 to 175 °C and under 500 nM.
`Cc1ccc2c(C#N)c(-c3ccc(S(=O)(=O)NC(C)(C)C(F)(F)F)cn3)n(C3CCCC3)c2c1` [compound 371, 6-(3-cyano-1-cyclopentyl-6-methyl-1H-indol-2-yl)-N-(1,1,1-trifluoro-2-methylpropan-2-yl)pyridine-3-sulfonamide] displayed a melting point of 202 to 211 °C. Further, the IC50 in series [1] is under 500 nM.
For `Cc1ccc2c(c1)c(C#N)c(-c1ccc(S(=O)(=O)N[C@@H](C)C(F)(F)F)cn1)n2CC1CC1` [compound 372, 6-[3-cyano-1-(cyclopropylmethyl)-5-methyl-1H-indol-2-yl]-N-[(2S)-1,1,1-trifluoropropan-2-yl]pyridine-3-sulfonamide] the same measures were 175 to 180 °C and under 500 nM.
For `Cc1ccc2c(c1)c(C#N)c(-c1ccc(S(=O)(=O)NC(CF)CF)cn1)n2CC1CC1` [compound 373, 6-[3-cyano-1-(cyclopropylmethyl)-5-methyl-1H-indol-2-yl]-N-(1,3-difluoropropan-2-yl)pyridine-3-sulfonamide] the same measures were 186 to 188 °C and under 500 nM.
For `CCc1ccc2c(c1)c(C#N)c(-c1ccc(S(=O)(=O)N[C@@H](C)C(F)(F)F)cn1)n2C1CCCC1` [compound 374, 6-(3-cyano-1-cyclopentyl-5-ethyl-1H-indol-2-yl)-N-[(2S)-1,1,1-trifluoropropan-2-yl]pyridine-3-sulfonamide] the same measures were 159.5 to 160.5 °C and under 500 nM.
Take `C[C@H](NS(=O)(=O)c1ccc(-c2c(C#N)c3ccc(Cl)cc3n2C2CCC2)nc1)C(F)(F)F` [compound 375, 6-(6-chloro-3-cyano-1-cyclobutyl-1H-indol-2-yl)-N-[(2S)-1,1,1-trifluoropropan-2-yl]pyridine-3-sulfonamide]: the melting point lay in the range of 198 to 204 °C. In addition, the IC50 in series [1] is under 500 nM.
For `C[C@H](NS(=O)(=O)c1ccc(-c2c(C#N)c3cc(Cl)ccc3n2C2CCC2)nc1)C(F)(F)F` [compound 376, 6-(5-chloro-3-cyano-1-cyclobutyl-1H-indol-2-yl)-N-[(2S)-1,1,1-trifluoropropan-2-yl]pyridine-3-sulfonamide] the same measures were 193 to 198 °C and under 500 nM.
For `N#Cc1c(-c2ncc(S(=O)(=O)NC(CF)CF)cn2)n(C2CCC2)c2ccc(CF)cc12` [compound 377, 2-[3-cyano-1-cyclobutyl-5-(fluoromethyl)-1H-indol-2-yl]-N-(1,3-difluoropropan-2-yl)pyrimidine-5-sulfonamide] the same measures were 131 to 134 °C and under 500 nM.
For `C[C@H](NS(=O)(=O)c1cnc(-c2c(C#N)c3cc(C(F)F)ccc3n2C2CCC2)nc1)C(F)(F)F` [compound 380, 2-[3-cyano-1-cyclobutyl-5-(difluoromethyl)-1H-indol-2-yl]-N-[(2S)-1,1,1-trifluoropropan-2-yl]pyrimidine-5-sulfonamide] the same measures were 186 to 188 °C and under 500 nM.
As for `CCc1ccc2c(c1)c(C#N)c(-c1ccc(S(=O)(=O)NC(CF)CF)cn1)n2C1CCCC1` [compound 381, 6-(3-cyano-1-cyclopentyl-5-ethyl-1H-indol-2-yl)-N-(1,3-difluoropropan-2-yl)pyridine-3-sulfonamide], the melting point fell in the range of 167 to 168 °C. Besides, the IC50 in series [1] is under 500 nM.
For `CC(C)(NS(=O)(=O)c1ccc(-c2c(C#N)c3ccc(OC(F)F)cc3n2C2CCCC2)nc1)C(F)(F)F` [compound 382, 6-[3-cyano-1-cyclopentyl-6-(difluoromethoxy)-1H-indol-2-yl]-N-(1,1,1-trifluoro-2-methylpropan-2-yl)pyridine-3-sulfonamide] the same measures were 170 to 174 °C and under 500 nM.
On to `C[C@H](NS(=O)(=O)c1ccc(-c2c(C#N)c3ccc(C4CC4)cc3n2C2CCCC2)nc1)C(F)(F)F` [compound 383, 6-(3-cyano-1-cyclopentyl-6-cyclopropyl-1H-indol-2-yl)-N-[(2S)-1,1,1-trifluoropropan-2-yl]pyridine-3-sulfonamide], for which the melting point fell in the range of 178 to 181 °C. For the same molecule, the IC50 in series [1] was under 500 nM.
For `C[C@H](NS(=O)(=O)c1ccc(-c2c(C#N)c3ccc(CC(F)F)cc3n2C2CCC2)nc1)C(F)(F)F` [compound 384, 6-[3-cyano-1-cyclobutyl-6-(2,2-difluoroethyl)-1H-indol-2-yl]-N-[(2S)-1,1,1-trifluoropropan-2-yl]pyridine-3-sulfonamide] the same measures were 172 to 174 °C and under 500 nM.
For `C[C@H](NS(=O)(=O)c1cnc(-c2c(C#N)c3ccc(CC(F)F)cc3n2C2CCC2)nc1)C(F)(F)F` [compound 385, 2-[3-cyano-1-cyclobutyl-6-(2,2-difluoroethyl)-1H-indol-2-yl]-N-[(2S)-1,1,1-trifluoropropan-2-yl]pyrimidine-5-sulfonamide] the same measures were 216 to 218 °C and under 500 nM.
For `C[C@H](NS(=O)(=O)c1ccc(-c2c(C#N)c3cc(F)ccc3n2-c2ccccn2)nc1)C(F)(F)F` [compound 386, 6-[3-cyano-5-fluoro-1-(pyridin-2-yl)-1H-indol-2-yl]-N-[(2S)-1,1,1-trifluoropropan-2-yl]pyridine-3-sulfonamide] the same measures were 210 to 212 °C and under 500 nM.
As for `C[C@H](NS(=O)(=O)c1ccc(-c2c(C#N)c3ccc(OC(F)F)cc3n2-c2ccccn2)nc1)C(F)(F)F` [compound 387, 6-[3-cyano-6-(difluoromethoxy)-1-(pyridin-2-yl)-1H-indol-2-yl]-N-[(2S)-1,1,1-trifluoropropan-2-yl]pyridine-3-sulfonamide], the melting point was in the range of 199 to 203 °C. Besides, the IC50 in series [1] was under 500 nM.
For `Cc1ccc2c(c1)c(C#N)c(-c1ncc(S(=O)(=O)NC(C)C)cn1)n2CC1CC1` [compound 388, 2-[3-cyano-1-(cyclopropylmethyl)-5-methyl-1H-indol-2-yl]-N-(propan-2-yl)pyrimidine-5-sulfonamide] the same measures were 219 to 222 °C and 500 to 2000 nM.
For `Cc1ccc2c(c1)c(C#N)c(-c1ncc(S(=O)(=O)N[C@@H](C)C(F)(F)F)cn1)n2CC1CC1` [compound 389, 2-[3-cyano-1-(cyclopropylmethyl)-5-methyl-1H-indol-2-yl]-N-[(2S)-1,1,1-trifluoropropan-2-yl]pyrimidine-5-sulfonamide] the same measures were 220 to 223 °C and 500 to 2000 nM.
Consider `Cc1ccc2c(c1)c(C#N)c(-c1ncc(S(=O)(=O)N[C@@H](C)C(F)(F)F)cn1)n2C1CCCCC1` [compound 390, 2-(3-cyano-1-cyclohexyl-5-methyl-1H-indol-2-yl)-N-[(2S)-1,1,1-trifluoropropan-2-yl]pyrimidine-5-sulfonamide], for which the melting point fell in the range of 218 to 223 °C. Further, in series [1], the IC50 was in the range of 500 to 2000 nM.
For `Cc1ccc2c(c1)c(C#N)c(-c1ncc(S(=O)(=O)N[C@@H](C)C(F)(F)F)cn1)n2C1CCCC1` [compound 391, 2-(3-cyano-1-cyclopentyl-5-methyl-1H-indol-2-yl)-N-[(2S)-1,1,1-trifluoropropan-2-yl]pyrimidine-5-sulfonamide] the same measures were 180 to 185 °C and under 500 nM.
For `C[C@H](NS(=O)(=O)c1cnc(-c2c(C#N)c3cc(C#N)ccc3n2C2CCCC2)nc1)C(F)(F)F` [compound 392, 2-(3,5-dicyano-1-cyclopentyl-1H-indol-2-yl)-N-[(2S)-1,1,1-trifluoropropan-2-yl]pyrimidine-5-sulfonamide] the same measures were 250 to 254 °C and under 500 nM.
For `C[C@H](NS(=O)(=O)c1cnc(-c2c(C#N)c3cc(F)ccc3n2C2CCCCC2)nc1)C(F)(F)F` [compound 393, 2-(3-cyano-1-cyclohexyl-5-fluoro-1H-indol-2-yl)-N-[(2S)-1,1,1-trifluoropropan-2-yl]pyrimidine-5-sulfonamide] the same measures were 236 to 238 °C and under 500 nM.
Consider `C[C@H](NS(=O)(=O)c1ccc(-c2c(C#N)c3ccc(F)cc3n2C2CCCCC2)nc1)C(F)(F)F` [compound 394, 6-(3-cyano-1-cyclohexyl-6-fluoro-1H-indol-2-yl)-N-[(2S)-1,1,1-trifluoropropan-2-yl]pyridine-3-sulfonamide], for which the melting point lay in the range of 213 to 215 °C. In addition, the IC50 in series [1] is under 500 nM.
Take `C[C@H](NS(=O)(=O)c1ccc(-c2c(C#N)c3ccc(F)cc3n2C2CCC2)nc1)C(F)(F)F` [compound 395, 6-(3-cyano-1-cyclobutyl-6-fluoro-1H-indol-2-yl)-N-[(2S)-1,1,1-trifluoropropan-2-yl]pyridine-3-sulfonamide]: the melting point lay in the range of 171 to 172 °C. Further, the IC50 in series [1] is under 500 nM.
